Patent US9598448B2, “Osmium (II) arene imino anti-cancer complexes” (University of Warwick, priority 2010, dated 2017)

Legend:
[1] = test system: human tumor 60-cell line panel; experiment: NCI/DTP human tumor 60-cell line panel screen; format: cell-based; conditions: NCI 60-cell line panel, MG-MID, 48 h
Protocol: The cells were treated for 48 h at five concentrations ranging from 0.01 to 100 μM. Three endpoints were calculated: GI 50 (the concentration inhibits cell growth by 50%):
TGI (the concentration inhibits cell growth by 100%)
LC 50 (the concentration kills original cells by 50%)
MG-MID (full-panel mean-graph midpoint).

[2] = test system: human ovarian A2780 cancer cells; experiment: SRB growth inhibition assay, A2780; format: cell-based; conditions: SRB; 24 h exposure, 72 h recovery; read-out: IC50 values for azopyridine complexes against A2780 ovarian cancer cells
Protocol: The concentrations of the osmium complexes that inhibit 50% of the proliferation of human ovarian A2780 cancer cells were determined by sulforhodamine B test. A2780 cells were seeded in 96-well plate (Falcon) at 5000 cells/well, after the incubation for 48 h, The complexes were solubilised in DMSO (Sigma) to provide 10 mM stocks. The stocks were serially diluted by cell culture media to give concentrations four-fold than the final concentrations for the assay. The dilutions of complexes in cell culture media were added to the 96-well plate with cells in triplicates to achieve the final concentrations. The final DMSO concentration in each well was no more than 1% (v/v). The complexes were removed after 24 h. The cells were washed with Phosphate Buffered Saline once and cell culture media was added 150 μL/well. The cells were recovered for 72 h. The surviving cells were fixed by adding 150 μL/well of 50% (w/v) trichloroacetic acid and incubated for 1 h at 277 K (277 K). The plates were washed with tap water three times and dried under a flow of warm air, 0.4% sulforhodamine B (Sigma) solution 100 μL/well followed by washing with 1% acetic acid five times and dried under a flow of warm air. The dye was dissolved in 10 mM Tris buffer […] The absorbance of each well was obtained by the Multiskan Ascent plate reader (Labsystems) at 540 nm. The absorbance value of SRB in each well is directly proportional to the cell number. Then the absorbance can be plotted against concentration and the IC50 determined by using Origin software.
The cytotoxicity studies were carried out as described previously above.

[3] = Stability and hydrolysis (1H NMR, MS, UV-vis); format: physicochemical; conditions: 310 K, 24 h, 95% deuterated phosphate buffer (10 mM)/5% MeOD-d4

In the case of “[(η^6-p-cym)Os(Azpy-NMe2)I]PF6 [Complex 6]”, the GI50 [1] is reported as 280 nM, the LC50 [1] is reported as 6300 nM and the TGI [1] is reported as 1170 nM. The IC50 [2] was 200 nM and the “stability and hydrolysis in aqueous solution” value [3] was “remained stable and did not hydrolyze”.
